The values below come from US6407316B1, “Method of increasing foreign protein expression” (priority 1997, dated 2002).

Each structure is given as a SMILES string.

Assay [1] deals with Roundup Ready® Cotton. The experiment in a line: Fruiting of Roundup Ready Cotton, insecticide at planting, Roundup at six-leaf stage. The assay is classed as in vivo. The settings on record: for % change from UTC (Squares per Plant) / Squares per Plant: 40 days after Roundup treatment; for % change from UTC (Square & Bolls) / Square & Bolls: after 57 days. As to the method: (§1) A plot of Roundup Ready® Cotton (RRC was grown up. One part of the plot was treated with Temik® at a rate of 5.6 kg/ha of commercial product at the time of planting of the seed. Another part was treated with Disyston® (disulfoton) at 22.24 kg of commercial product/ha the time of planting of the seed. Another part of the plot was grown from seed treated with Gauch® (imidactoprid) at a rate of 0.357 kg of commercial product per 100 kg of seed. One part of the plot was left untreated by an insecticide which is called hereafter the untreated check (UTC).
Roundup Ready® Cotton was grown up as in Example 5 and treated with Roundup at the six-leaf stage.
The following results were observed 40 days after the Roundup® treatment:
After 57 days, many of the square had matured to bolls.

For assay [2], the system named is Roundup Ready® Cotton. Put plainly: Fruiting of Roundup Ready Cotton, insecticide at planting, Roundup at four-leaf stage. The assay is classed as in vivo. The settings on record: for % change from UTC (Squares per Plant) / Squares per Plant / % change from UTC (Squares + Bolls) / Squares + Bolls: Roundup at four-leaf stage; for % change from UTC (Squares per Plant) / Squares per Plant: 45 days after Roundup treatment; for % change from UTC (Squares + Bolls) / Squares + Bolls: after 62 days. As to the method: as §1
The isopropylamine salt of glyphosate was applied to all the cotton plants at the four-leaf stage in the form of the commercial product Roundup® at a rate of 32 oz of commercial product per acre (=[…] of active ingredient). The following results were observed 45 days after the Roundup® treatment:
After 62 days, many squares had matured to bolls and the following observations were made: […]

The subject of assay [3] is NuCotn® 32B. The experiment in a line: Number of bolls on field-grown NuCotn 32B after side-dress aldicarb. The assay is classed as in vivo, cotton. The conditions noted are these: Temik 15G side-dress 7.8 kg/ha commercial product; after a full growing season. The source says: (§2) Seeds of NuCotn® 32B are planted in a field. Aldicarb, in the form of the commercial product Temik® 15G (a 15% weight/weight granular formulation) is applied as a side-dress at 7.8 kg/ha of commercial product. […] The amount of damage due to bollworm attack on the cotton is less in those treated with aldicarb in comparison to those not treated with aldicarb.

The test system of assay [4] is bollworm. The experiment in a line: Bollworm damage on field-grown NuCotn 32B after side-dress aldicarb. The class given is in vivo. The conditions noted are these: Temik 15G side-dress 7.8 kg/ha commercial product; after a full growing season.
Text: as §2

For assay [5], the system named is delta-endotoxin. The experiment in a line: Delta-endotoxin level in tissues of field-grown NuCotn 32B after in-furrow aldicarb. The conditions noted are these: Temik 15G in furrow, about 0.5 kg/ha active ingredient; various points in the growing season. The class given is in vivo, cotton (NuCotn® 32B). Here is the method:
Seeds of NuCotn® 32B are planted in a field. Aldicarb, in the form of the commercial product Temik® 15G (a 15% weight/weight granular formulation) is applied in the furrow that comprises the seed at a rate of about 0.5 kg/ha of active ingredient or 3.3 kg/ha of commercial product. At various points in the growing season, the plant tissues are tested for the levels of the delta-endotoxin.

The test system of assay [6] is Heliothis virescens. Put plainly: Bt cotton tissue incorporated into Heliothis diet, pupation bioassay (EC50P). The class given is in vivo. The settings on record: aldicarb at plant, tissue collected after 90 days. Here is the method: Cotton leaves and squares were collected from treatments of Bt Cotton wherein the cotton was treated with Temik® 15G under the following conditions;
A) 0.45 lbs active ingredient per acre at plant (0.5 kg/ha)
B) […] active ingredient per acre at plant; […] and
C) 0.75 lbs active ingredient per acre (0.84 kg/ha) at plant and followed 3 weeks later by a side-dress treatment of 1.0 lbs per acre (1.12 kg/ha) of active ingredient.
One planting was not treated with aldicarb.
After 90 days leaves and squares were collected, washed with soap and water, allowed to dry, washed with acetone, allowed to dry and finally washed with chloroform. The tissues were then freeze dried, ground in a mortar and pestle and stored at room temperature.
The cotton tissues were incorporated into a Heliothis diet and fed to Heliothis virescens. The larvae in the cups were weighed at seven days after infestation and the number of pupae were counted 14 and 21 days after infestation. The percent pupation was calculated at the different concentrations and the EC50P (the amount of tissue per liter of diet that reduced pupation by 50%) was calculated for each insecticide treatment to express the amount of toxin activity in the treatment.

For the compound `CCOP(=S)(OCC)SCCSCC` [disulfoton], in assay [1], the “% change from UTC (Squares per Plant)” value is recorded as −36%, the “Squares per Plant” value worked out at 5.65, the “% change from UTC (Square & Bolls)” value is on record as “+14%” and the “Square & Bolls” value is recorded as 16.5. Moreover, in assay [2], the “% change from UTC (Squares per Plant)” value is “+2%”, the “Squares per Plant” value was found to be 7.65, the “% change from UTC (Squares + Bolls)” value is −15.0% and the “Squares + Bolls” value is given as 12.8.
In the case of `CNC(=O)ON=CC(C)(C)SC` [aldicarb, 2-methyl-2-(methylthio)propionaldehyde O-(methylcarbamoyl)oxime], in assay [1], the “% change from UTC (Squares per Plant)” value was “+23%”, the “Squares per Plant” value came out at 10.95, the “% change from UTC (Square & Bolls)” value was “+11%” and the “Square & Bolls” value is reported as 16.0. For the same compound, the “number of bolls on the plants vs not treated” value in assay [3] is given as “larger number of bolls”. Moreover, the “amount of damage due to bollworm attack vs not treated” value in assay [4] is recorded as “less”. Besides, in assay [5], the “level of the delta-endotoxin in plant tissues vs plants not treated” value is given as “higher level of the endotoxin”. In addition, in assay [2], the “% change from UTC (Squares per Plant)” value is “+21%”, the “Squares per Plant” value is recorded as 9.05, the “% change from UTC (Squares + Bolls)” value was “+18.7%” and the “Squares + Bolls” value was 18.7. Further, the “yield of cotton compared with UTC or cotton treated with other pesticides” value in assay [2] (herbicide at the four-leaf stage, summary of Example 5) is “increases the yield of cotton”. For the same compound, the “amount of tissue to reduce pupation by 50% (EC50P) vs untreated check” value in assay [6] (leaf tissue, reading three weeks after infestation) is “higher amounts of tissue”. In assay [6] (leaf tissue, reading two weeks after infestation), the “amount of tissue to reduce pupation by 50% (EC50P) vs untreated check” value is “higher amounts of tissue”. For the same compound, in assay [6] (square tissue, reading three weeks after infestation), the “amount of tissue to reduce pupation by 50% (EC50P) vs untreated check” value is “lesser amounts of tissue”. Further, in assay [6] (square tissue, reading two weeks after infestation), the “amount of tissue to reduce pupation by 50% (EC50P) vs untreated check” value was “lesser amounts of tissue”.
With `O=[N+]([O-])N=C1NCCN1Cc1ccc(Cl)nc1` [imidacloprid, 1-(6-chloro-3-pyridylmethyl)-N-nitroimidazolidin-2-ylideneamine], in assay [1], the “% change from UTC (Squares per Plant)” value is reported as −14%, the “Squares per Plant” value came to 7.60, the “% change from UTC (Square & Bolls)” value is “+14%” and the “Square & Bolls” value amounted to 16.5. Besides, in assay [2], the “% change from UTC (Squares per Plant)” value is “+18%”, the “Squares per Plant” value worked out at 8.70, the “% change from UTC (Squares + Bolls)” value is −0.2% and the “Squares + Bolls” value stood at 14.8.
